Where a name gives a salt, the structure may show the parent alone.
Experiments:
ß-Adrenozeptor = assay: Attenuation of the positive chronotropic effect of isoprenaline in the conscious dog; assay type: in vivo, Hund; conditions: intensity relative to the known ß-blocker Atenolol at the same dose
Method: (§1) Sobewirkt z.B. das Hydrochlorid von 2,2-Dimethyl-4- (2' hydroxy-3'-tert.butylaminopropoxy)-1,3-benzodioxol am wachen Hund eine 40-fach intensivere Abschwächung der positiv chronotropen Isoprenalinwirkung als der bekannte B-Blocker Atenolol in gleicher Dosierung und ergibt im Writhing-Test nach Huntingdon mit einer ED 50 von nur 8 mg/kg (Maus, oral) eine gute analgetische Wirkung. Vergleicht man diese im Writhina-Test mit der von bekannten Analgetika, dann zeigt sich die Überlegenheit des neuen Wirkstoffes: […]

Maus = assay: Writhing test according to Huntingdon (analgesia); assay type: in vivo; conditions: Mus musculus, oral
Method: as §1

| Compound | Abschwächung der positiv chronotropen Isoprenalinwirkung (ß-Adrenozeptor) | ED50 (Maus) [mg/kg] |
| --- | --- | --- |
| CC(C)(C)NCC(O)COc1cccc2c1OC(C)(C)O2 (centres unmarked) [2,2-Dimethyl-4-(2'-hydroxy-3'-tert.butylamino--propoxy)-1,3-benzodioxol] | 40 -fach | 8 |
| Cc1c(N(C)CS(=O)(=O)O)c(=O)n(-c2ccccc2)n1C [Metamizol-Natrium] | – | 10.6 |
| NC(=O)c1ccccc1OCC(=O)O [Natriumsalz der Salicylamid-O-essigsäure] | – | 11.5 |
| CCOC(=O)C1(c2ccccc2)CCN(C)CC1 [Pethidin-Hydrochlorid] | – | 13.3 |
